Series [1] deals with HT-29. In words: Antiproliferative MTT assay, HT-29 colon cancer cells. The format is cell-based, human. The settings on record: MTT assay, 48 h, mean ± SD, read-out: IC50 HT-29. The protocol: (§1) The antiproliferative activities of the cinnamyl and benzodioxyl derivatives were assessed against six human cell lines of three different types of cancer (colon, lung, and breast) using the 3-(4,5-dimethylthiazol-2-yl)-2,5-diphenyltetrazolium bromide (MTT) assay at seven concentrations for 48 h. The results are expressed as the IC50 values and are outlined in Table 1.
(§2) The cell lines were obtained from the American Type Culture Collection (ATCC). All the cancer cell lines (HT-29, HCT-116, H1299, HTB-54, MDA-MB-231 and MCF-7) and the nontumorigenic cells (184B5) were maintained in RPMI 1640 medium (Gibco), supplemented with 10% fetal bovine serum (FBS; Gibco) and 1% antibiotics (10.00 units/mL penicillin and 10.00 mg/mL streptomycin; Gibco). Cells were preserved in tissue culture flasks at 37 °C and 5% CO2. Culture medium was replaced every three days.
(§3) The cytotoxic effect of each compound was initially tested at seven different concentrations ranging between 0.5 and 100 µM in the cell lines mentioned above. The cells were seeded (1 × 10^4 cells per well) in 96-well plates and incubated at 37 °C and 5% CO2 for 24 h. After attachment, cells were treated with either dimethyl sulfoxide (DMSO) or increasing concentrations of the corresponding selenocompound for 48 h. The effect of the compounds on cell viability was determined by the MTT assay. In brief, 20 µL of MTT (5 mg/mL) was added to each well 2.5 h prior to experiment termination. At the end of the incubation, the medium was removed, and the formazan crystals were dissolved in 50 µL of DMSO. Absorbance was measured at 550 nm on a microplate reader. IC50 values were calculated using OriginPro 8.5.1. software by nonlinear curve fitting. Selectivity indexes were calculated as the ratio of the IC50 values determined for the nonmalignant and the tumoral cells in the breast cell lines (IC50 (184B5)/IC50 (MDA-MB-231) and IC50 (184B5)/IC50 (MCF-7)). Data were obtained from at least three independent experiments performed in triplicates.
(In general: Tetrazolium assays rely on reduction of a dye to a coloured formazan, in cell work by metabolically active cells.)

In series [2] the test system is MCF-7. In words: Antiproliferative MTT assay, MCF-7 breast cancer cells. In kind it is cell-based, human. The settings on record: MTT assay, 48 h, mean ± SD. The method, then: as §1, §2, §3
For series [3], the system named is HTB-54. In words: Antiproliferative MTT assay, HTB-54 lung cancer cells. To be noted: Homo sapiens, HTB-54; MTT assay, 48 h, mean ± SD; read-out: IC50 HTB-54. In kind it is cell-based, human. The method, then: as §1, §2, §3
Series [4] relates to E. coli. In words: MIC and MBC assay, E. coli. In kind it is cell-based, Escherichia coli. The settings on record: Escherichia coli; Gram-negative, 24 h at 37 °C. The protocol: (§4) The minimum inhibitory concentration (MIC) and the minimum bactericidal concentration (MBC) values of the selenocompounds were determined in a panel of six bacterial strains as a first approach to assess their antibacterial activity. Thus, the synthesized derivatives were tested against the Gram-negative bacteria Escherichia coli (E. coli), Klebsiella pneumoniae (K. pneumoniae) and Citrobacter freundii (C. freundii); and the Gram-positive bacteria Staphylococcus aureus (S. aureus), Streptococcus faecalis (S. faecalis), and Staphylococcus epidermidis (S. epidermidis). […]
(§5) All the selenocompounds were screened for their in vitro inhibitory activity against three Gram-negative (E. coli, K. pneumoniae and C. freundii) and three Gram-positive (S. aureus, S. faecalis and S. epidermidis) bacteria. Bacterial strains were kindly provided by the Department of Microbiology and Parasitology of the University of Navarra. The bacterial cells were grown in tryptic soy agar (TSA) plates and maintained at 4 °C.
(§6) The compounds were firstly dissolved in DMSO and serially diluted in a 96-well plate in tryptic soy broth (TSB) with eleven concentrations ranging from 400 µg/mL to 0.4 µg/mL with a final volume of 100 µL. Subsequently, 100 µL of a diluted suspension of bacterial cells with an optical density of 0.125 measured at 600 nm in TSB (inoculum of approximately 10^5 CFU/mL) was added to each well and incubated at 37 °C for 24 h. After the incubation period, each well was analyzed for the presence or absence of visual growth of bacterial cells. The lowest concentration of the test compound at which no visible growth occurred was determined as the MIC values. After incubation, 10 µL of the bacterial suspension from each well that presented antibacterial activity was added to divided TSA plates and incubated at 37 °C overnight.

The subject of series [5] is S. faecalis. Put plainly: MIC and MBC assay, S. faecalis. In kind it is cell-based, Streptococcus faecalis. To be noted: Enterococcus faecalis; Gram-positive, 24 h at 37 °C; read-out: MIC S. faecalis. The method, then: as §4, §5, §6
Series [6] relates to 184B5. In words: MTT assay in nonmalignant mammary gland cells 184B5. The format is cell-based. To be noted: nontumorigenic cells, MTT assay, 48 h, mean ± SD. The method, then: To assess their possible selectivity, the synthesized selenocompounds were then tested in a mammary gland (184B5) nonmalignant cell line, and the selectivity indexes (SI) were determined as the ratio of the IC50 values obtained for the nonmalignant cells and the homolog cancer cells.
as §2, §3

The subject of series [7] is HCT-116. In words: Antiproliferative MTT assay, HCT-116 colon cancer cells. The format is cell-based, human. To be noted: MTT assay, 48 h, mean ± SD, read-out: IC50 HCT-116. The method, then:
as §1, §2, §3

For series [8], the system named is S. epidermidis. Put plainly: MIC and MBC assay, S. epidermidis. The format is cell-based, Staphylococcus epidermidis. The settings on record: Staphylococcus epidermidis; Gram-positive, 24 h at 37 °C; read-out: MIC S. epidermidis. The method, then: as §4, §5, §6
Series [9] concerns MDA-MB-231. In words: Antiproliferative MTT assay, MDA-MB-231 breast cancer cells. In kind it is cell-based, human. The settings on record: Homo sapiens, MDA-MB-231; MTT assay, 48 h, mean ± SD; read-out: IC50 MDA-MB-231. The method, then: as §1, §2, §3
The subject of series [10] is Leishmania major promastigotes. In words: Parasite viability MTT assay, L. major promastigotes. The settings on record: Leishmania major, 48 h, promastigotes, MTT assay, mean ± SD, read-out: IC50 Leishmania major. In kind it is cell-based. The method, then: (§7) The cytotoxic activities of all the derivatives against Leishmania major and Leishmania infantum promastigotes were studied by the MTT assay after exposing the parasites to five different concentrations of each compound for 48 h. Miltefosine and paromomycin, two currently available drugs for the treatment of leishmaniasis, were used as positive controls.
(§8) L. major (clone VI, MHOM/IL/80/Friendlin) and L. infantum (BCN-150) promastigotes were grown in continuous stirred M199 1X medium (Sigma, St Louis, MO, USA) at 26 °C supplemented with 25 mM HEPES (pH 7.2), 10% heat-inactivated FBS (Gibco, Gaithersburg, MD, USA), 0.1 mM adenine, 0.0005% (w/v) hemin, 0.0001% (w/v) biotin, 100 UI/mL penicillin and […] streptomycin (Gibco, Gaithersburg, MD, USA). Media were changed before each experiment to achieve exponential growth.
(§9) The antileishmanial activity was assessed by the MTT assay as previously described. Briefly, 3 × 10^6 promastigotes of both Leishmania strains were placed into a 96-well plate with supplemented M199 1X medium during their logarithmic growth phase. The parasites were treated with five increasing concentrations of the compounds ranging between 0.1 and 1000 µM at 26 °C for 48 h. At the termination point, 20 µL of MTT (5 mg/mL) was added and further incubated for 4 h. The resultant formazan crystals formed were dissolved in 80 µL of DMSO and the absorbance was measured at 550 nm on a microplate reader. IC50 values were calculated using OriginPro 8.5.1. software by nonlinear curve fitting. Miltefosine and paromomycin were used as reference drugs. Data were obtained from at least three independent experiments performed in triplicates.

Series [11] has as its system S. aureus. Put plainly: MIC and MBC assay, S. aureus. To be noted: Staphylococcus aureus; Gram-positive, 24 h at 37 °C. In kind it is cell-based, Staphylococcus aureus. The method, then: as §4, §5, §6
The subject of series [12] is K. pneumoniae. Put plainly: MIC and MBC assay, K. pneumoniae. The format is cell-based, Klebsiella pneumoniae. The settings on record: Klebsiella pneumoniae; Gram-negative, 24 h at 37 °C; read-out: MIC K. pneumoniae. The protocol: as §4, §5, §6
The test system of series [13] is Leishmania infantum promastigotes. In words: Parasite viability MTT assay, L. infantum promastigotes. The format is cell-based. The settings on record: Leishmania infantum, 48 h, promastigotes, MTT assay, mean ± SD, read-out: IC50 Leishmania infantum. The protocol: as §7, §8, §9
In series [14] the test system is C. freundii. In words: MIC and MBC assay, C. freundii. In kind it is cell-based, Citrobacter freundii. The settings on record: Citrobacter freundii; Gram-negative, 24 h at 37 °C; read-out: MIC C. freundii. The method, then:
as §4, §5, §6

The structures appear in SMILES notation. Like-named read-outs stand apart in the source and are kept apart here.

The values below come from PMC9656702, “Unveiling a New Selenocyanate as a Multitarget Candidate with Anticancer, Antileishmanial and Antibacterial Potential” (Molecules, 2022).

`c1cc2c(cc1C[Se][Se]Cc1ccc3c(c1)OCO3)OCO2` [Compound 2b, 1,2-Bis(benzo[d][1,3]dioxol-5-ylmethyl)diselenide] registered a melting point of 78 to 80 °C. In addition, the IC50 in series [1] (Homo sapiens, HT-29, 48 h) was < 12 µM. In addition, in [1], the IC50 was determined as 10.1 ± 1.2 µM. In addition, in series [2] (Homo sapiens, MCF7, read-out: IC50 MCF-7), the IC50 is > 100 µM. Also, the “IC50 MCF-7” value in [2] is “completely inactive”. In series [3], the IC50 was 41.6 ± 9.4 µM. Further, the MIC in series [4] is > 200 µg/mL. The MIC in series [5] was > 200 µg/mL. In addition, the half-inhibitory concentration (IC50) in series [6] (Homo sapiens, 184B5, 48 h, read-out: IC50 184B5) was > 100 µM. The “IC50 184B5” value in series [6] was “did not display any activity”. For the same compound, the IC50 in series [7] (Homo sapiens, HCT-116, 48 h) is ~11 µM. In addition, the IC50 in series [7] came to 11.3 ± 1 µM. Moreover, in series [8], the minimum inhibitory concentration (MIC) is > 200 µg/mL. Moreover, the IC50 in [9] is 46.6 ± 12.1 µM. Besides, the concentration for half-maximal inhibition (IC50) in [10] worked out at 49.4 ± 16.7 µM. Moreover, the MIC in series [11] is > 200 µg/mL. The minimal inhibitory concentration (MIC) in series [12] was > 200 µg/mL. The IC50 in [13] came out at 56.1 ± 8.1 µM. The minimum inhibitory concentration (MIC) in series [14] was > 200 µg/mL.
`CCCCCCCCCCCCCCCCOP(=O)([O-])OCC[N+](C)(C)C` [Miltefosine, reference compound]: the IC50 in series [10] amounted to 66.6 ± 11.6 µM.
Regarding `NC[C@@H]1O[C@H](O[C@H]2[C@@H](O)[C@H](O[C@@H]3[C@@H](O)[C@H](N)C[C@H](N)[C@H]3O[C@H]3O[C@H](CO)[C@@H](O)[C@H](O)[C@H]3N)O[C@@H]2CO)[C@H](N)[C@@H](O)[C@@H]1O` [Paromomycin, reference compound], the IC50 in [10] was found to be 71 ± 3.3 µM; in [13] it was 18 ± 1 µM.

As usually defined, the IC50 is the midpoint of a concentration-inhibition curve. The MIC is the lowest concentration that inhibits growth of the organism. The term melting point denotes the temperature of the solid-liquid transition.
